{"source": "paper PMC12067350", "about": "“Discovery of Thieno[3,2‑b]pyridine-5-carboxamide and 2,3-Difluorobenzamide Negative Allosteric Modulators of Metabotropic Glutamate Receptor Subtype 5” (ACS Medicinal Chemistry Letters, 2025)", "assay_type_in_all_cases": "in vitro ADME", "key": {"[1]": {"experiment": "Intrinsic clearance in human liver microsomes", "details": "for CLint scaled at 0.75 h, 1 µM: pH 7.4, human liver microsomes; for CLhep, human: predicted hepatic clearance from human microsomes"}, "[2]": {"experiment": "Binding in plasma from rat (equilibrium dialysis)", "details": "fraction unbound", "method": "(§1) Binding in plasma from rat and human.\nDetermination of compounds’ fraction unbound (f u) in plasma from rat and human was conducted in vitro via equilibrium dialysis using HTDialysis membrane plates. Dialysis membranes (four paired strips per HTD assay) were hydrated as described by the manufacturer and inserted into the HTD plate, which was assembled and prepared for sample addition by the dispensing of blank buffer (DPBS, 100 µL/well) into the ‘top half’ of each membrane-split well. Each compound was diluted into plasma from each species (5 µM final concentration), which was aliquoted in triplicate to the ‘bottom half’ of the prepared HTD plate wells. The HTD plate was sealed and incubated for 6 hours at 37 °C. […] Supernatant (60 µL) from each well of the daughter plates was then transferred to the corresponding wells of new daughter plates (96-shallow-well, V bottom) containing water (Milli-Q, 60 µL/well), and the plates were sealed in preparation for LC-MS/MS analysis (see below). fu was calculated as (analyte to IS MS peak area ratio from Trans-buffer side) / (analyte to IS MS peak area ratio from Cis-plasma side). Mean values for each species were calculated from 3 replicates. […]\n(§2) Mean values for each species were calculated from 3 replicates."}, "[3]": {"experiment": "Binding in plasma from human (equilibrium dialysis)", "details": "fraction unbound", "method": "as §1\nDetermination of compounds’ fraction unbound (f u) in plasma from rat and human was conducted in vitro via equilibrium dialysis using HTDialysis membrane plates. Dialysis membranes (four paired strips per HTD assay) were hydrated as described by the manufacturer and inserted into the HTD plate, which was assembled and prepared for sample addition by the dispensing of blank buffer (DPBS, 100 µL/well) into the ‘top half’ of each membrane-split well. Each compound was diluted into plasma from each species (5 µM final concentration), which was aliquoted in triplicate to the ‘bottom half’ of the prepared HTD plate wells. The HTD plate was sealed and incubated for 6 hours at 37 °C. Following incubation, each well (both top and bottom halves) were transferred (20 µL) to the corresponding wells of a 96-shallow-well (V-bottom) plate. The daughter plates were then matrix-matched (buffer side wells received equal volume of plasma, and plasma side wells received equal volume of buffer), and extraction solution (120 µL; acetonitrile containing 50 nM carbamazepine as IS) was added to all wells of both daughter plates to precipitate protein and extract test article. The plates were then sealed and centrifuged (3500 rcf) for 10 minutes at ambient temperature. Supernatant (60 µL) from each well of the daughter plates was then transferred to the corresponding wells of new daughter plates (96-shallow-well, V bottom) containing water (Milli-Q, 60 µL/well), and the plates were sealed in preparation for LC-MS/MS analysis (see below). fu was calculated as (analyte to IS MS peak area ratio from Trans-buffer side) / (analyte to IS MS peak area ratio from Cis-plasma side). Mean values for each species were calculated from 3 replicates. […]\nas §2"}, "CYP2C9": {"biological_target": "T1, CYP2C9 (Homo sapiens, UniProt P11712)", "T1 construct": "from tissue; host or cells: human liver microsomes", "T1 sequence (P11712 whole entry)": "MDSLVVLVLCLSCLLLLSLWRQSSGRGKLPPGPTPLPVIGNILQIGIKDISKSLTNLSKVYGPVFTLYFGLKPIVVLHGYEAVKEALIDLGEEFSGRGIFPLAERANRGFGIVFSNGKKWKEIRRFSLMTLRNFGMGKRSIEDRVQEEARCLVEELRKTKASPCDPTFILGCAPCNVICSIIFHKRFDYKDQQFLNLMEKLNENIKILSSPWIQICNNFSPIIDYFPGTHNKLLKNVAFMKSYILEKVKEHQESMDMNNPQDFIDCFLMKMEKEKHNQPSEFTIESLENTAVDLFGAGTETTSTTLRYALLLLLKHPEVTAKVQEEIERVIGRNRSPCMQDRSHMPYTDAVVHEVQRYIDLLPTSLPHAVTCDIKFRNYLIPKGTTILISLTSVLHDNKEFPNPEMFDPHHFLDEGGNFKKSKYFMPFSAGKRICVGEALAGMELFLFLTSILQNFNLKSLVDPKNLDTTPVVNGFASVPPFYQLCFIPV", "experiment": "Cytochrome P450 inhibition using human liver microsomes, CYP2C9", "details": "read-out: CYP 450 IC50, 2C9"}}}
{"smiles": "Cc1csc(NC(=O)c2cc(O[C@@H]3CCOC3)c3sccc3n2)n1", "note": "[19aA]", "values": [{"measurement": "CLint scaled at 0.75 h, 1 µM", "setting": "[1]", "result": 140, "unit": "mL/min/kg"}, {"measurement": "CLhep, human", "setting": "[1]", "result": 18.3, "unit": "mL/min/kg"}, {"measurement": "rat f u,plasma", "setting": "[2]", "result": 0.027}, {"measurement": "human f u,plasma", "setting": "[3]", "result": 0.020}, {"measurement": "IC50", "setting": "CYP2C9", "result": "> 30", "unit": "µM"}]}
{"smiles": "Cc1csc(NC(=O)c2cc(O[C@@H]3CCOC3)cc(F)c2F)n1", "note": "[27cA]", "values": [{"measurement": "CLint scaled at 0.75 h, 1 µM", "setting": "[1]", "result": 241, "unit": "mL/min/kg"}, {"measurement": "CLhep, human", "setting": "[1]", "result": 19.3, "unit": "mL/min/kg"}, {"measurement": "rat f u,plasma", "setting": "[2]", "result": 0.040}, {"measurement": "human f u,plasma", "setting": "[3]", "result": 0.069}, {"measurement": "IC50", "setting": "CYP2C9", "result": "> 30", "unit": "µM"}]}
